The text below walks through data of ChEMBL document CHEMBL1201862, “PubChem BioAssay data set” (2004).

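Step 1: Grow cells in 96-well plates. Step 2: Expose to compound for 48 hours at 5 concentrations. Step 3: Interpolate endpoints linearly; if unreached, use highest concentration. GI50 = concentration required for 50% inhibition of growth.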 Activity calls are given as the source filed them. Rule as the data show it: active = GI50 up to about 1.1 µM and inactive = higher.

Common to all, as to assay: growth of human tumour cells (NCI), 48 h
For assay [1], the system named is RPMI-8226.
For assay [2], the system named is SNB-19.
The subject of assay [3] is OVCAR-3.
The test system of assay [4] is HL-60.
Assay [5] deals with UACC-257.
The test system of assay [6] is NCI-H522.
Assay [7] relates to SF-268.
The test system of assay [8] is HOP-92.
For assay [9], the system named is LOX IMVI.
The test system of assay [10] is HOP-62.
The test system of assay [11] is MOLT-4.
Assay [12] has as its system HCT-116.
Assay [13] has as its system OVCAR-8.
Assay [14] concerns ACHN.
In assay [15] the test system is K562.
The test system of assay [16] is UACC-62.
Assay [17] relates to Malme-3M.
The test system of assay [18] is KM12.
Assay [19] concerns CAKI-1.

In the case of `CCC1(CC)C(=O)NC(=S)N=C1N`, the GI50 in assay [1], in assay [2], in [3], in assay [4], in [5] and in assay [6] was > 100 µM (inactive) each time. For the same compound, the GI50 in [7], in [8], in [9], in assay [10], in assay [11] and in assay [12] was > 100 µM (inactive) each time. In addition, the GI50 in [13], in assay [14], in assay [15], in [16] and in [17] was > 100 µM (inactive) in each case.

On to `Cc1ccc(NC(=O)CC/C(CC(=O)C(C)(C)C)=N\Nc2ccc([N+](=O)[O-])cc2[N+](=O)[O-])cc1C`, for which the GI50 in [2] is > 100 µM (inactive); in assay [3], 0.0195 µM (active); in assay [4], > 10 µM (inactive); in [5], > 100 µM (inactive); in assay [7] it was > 100 µM (inactive); in [8], 27 µM (inactive). Moreover, the GI50 was 31.6 µM (inactive) in assay [9]; 0.0522 µM (active) in assay [10]; 28.8 µM (inactive) in [11]; 67.5 µM (inactive) in [18]; 50.5 µM (inactive) in assay [12]; 59.6 µM (inactive) in [13]. For the same compound, the GI50 in assay [14] was 45.8 µM (inactive); in assay [15] it was 28.3 µM (inactive); in assay [16], 32.2 µM (inactive).

On to `N#CC(c1ccccn1)c1nc2ccccc2[nH]1` (centres undefined), for which the GI50 in assay [1] is 54 µM (inactive); in assay [2], > 100 µM (inactive); in assay [3], > 100 µM (inactive); in [4] it was 32.3 µM (inactive); in [5] it was > 100 µM (inactive); in [6], > 100 µM (inactive). Besides, the GI50 in assay [7] was > 100 µM (inactive); in assay [10], > 100 µM (inactive); in [11], 47.5 µM (inactive); in assay [12], 98.4 µM (inactive); in [13], 84.5 µM (inactive); in [14], > 100 µM (inactive). Further, the GI50 in assay [15] is > 100 µM (inactive); in assay [19] it was > 100 µM (inactive); in assay [16], 70.3 µM (inactive); in assay [17], > 100 µM (inactive).

Consider `OCC(O)C(OC1OC(CO)C(O)C(O)C1O)c1nn(-c2ccc(F)cc2)c2nc3cc(Cl)c(Cl)cc3cc12` (centres undefined), for which the GI50 in assay [1], in assay [2], in assay [3], in assay [5], in assay [6] and in assay [7] was > 100 µM (inactive) each time. In addition, the GI50 in assay [9], in assay [10], in assay [11], in assay [18], in assay [12] and in assay [13] was > 100 µM (inactive) throughout. Also, the GI50 in [14], in assay [15], in [16] and in [17] was > 100 µM (inactive) in each case.

Consider `CC(C)[C@H](COC(C)(C)C)/N=C/N1CSc2ccccc21`, for which the GI50 in assay [1] is 20.4 µM (inactive); in assay [2] it was 37.8 µM (inactive); in [3], 23 µM (inactive); in assay [4], 26.4 µM (inactive); in [6], 31.9 µM (inactive); in assay [7], 59 µM (inactive). Further, the GI50 in assay [8] was 17.6 µM (inactive); in [9], 33.7 µM (inactive); in [10], 41.2 µM (inactive); in assay [11] it was 36.1 µM (inactive); in assay [18] it was 27.6 µM (inactive); in [12], 27.6 µM (inactive). Moreover, the GI50 is 35.2 µM (inactive) in [13], 25.7 µM (inactive) in assay [14], 33.7 µM (inactive) in assay [15] and 48.8 µM (inactive) in assay [16].

For `CCCCCCCCCCCCC(Br)C(C)=O` (centres undefined), the GI50 in assay [2], in [3], in assay [4], in assay [5], in assay [6] and in assay [7] was > 100 µM (inactive) in each case. For the same compound, the GI50 in assay [8], in assay [9], in assay [10], in assay [18], in assay [12] and in assay [13] was > 100 µM (inactive) throughout. Also, the GI50 in [14], in assay [16] and in assay [17] was > 100 µM (inactive) in each case.

As to `Cc1ccccc1NC(=O)/C=N/O`, the GI50 in assay [1] is > 100 µM (inactive); in assay [2] it was > 100 µM (inactive); in assay [3] it was > 100 µM (inactive); in [4] it was 0.429 µM (active); in [5], > 100 µM (inactive); in [6] it was > 100 µM (inactive). Further, the GI50 in [7], in [9], in assay [10], in [11], in [18] and in [12] was > 100 µM (inactive) throughout. Also, the GI50 in assay [13] was > 100 µM (inactive); in [14], > 100 µM (inactive); in assay [15] it was > 100 µM (inactive); in [19] it was > 100 µM (inactive); in assay [16], 14.6 µM (inactive); in assay [17], > 100 µM (inactive).

Turning to `O=C1C(Cl)C(c2ccccc2O)N1n1cnc2ccccc2c1=O` (centres undefined), the GI50 in assay [1] is 6.75 µM (inactive); in [2], 63.8 µM (inactive); in assay [3], > 100 µM (inactive); in assay [4] it was 13 µM (inactive); in [5] it was 46.7 µM (inactive); in assay [6], 23.6 µM (inactive). Moreover, the GI50 is 43.4 µM (inactive) in assay [7]; 61 µM (inactive) in assay [9]; 48.5 µM (inactive) in assay [10]; 27.6 µM (inactive) in assay [11]; > 100 µM (inactive) in [18]; 64.3 µM (inactive) in assay [12]. For the same compound, the GI50 in assay [13] is 92.7 µM (inactive); in assay [14], 39.4 µM (inactive); in assay [15] it was 58.1 µM (inactive); in assay [19] it was 37.8 µM (inactive); in assay [16], 44.3 µM (inactive); in assay [17], 75.3 µM (inactive).

Take `COC1CCC(OS(C)(=O)=O)C(CO)O1` (centres undefined): the GI50 in assay [3], in [4], in [5], in assay [6], in assay [8] and in [9] was > 100 µM (inactive) throughout. The GI50 in [10], in assay [11], in assay [18], in assay [12], in [13] and in assay [14] was > 100 µM (inactive) each time. Moreover, the GI50 in assay [15], in [16] and in assay [17] was > 100 µM (inactive) each time.

Take `Cc1ccc(NC(=O)NC23CC4CC(CC(F)(C4)C2)C3)cc1`: the GI50 in [1] is 28.3 µM (inactive); in assay [2], > 100 µM (inactive); in assay [3], > 100 µM (inactive); in assay [4], 64.3 µM (inactive); in [5] it was > 100 µM (inactive); in assay [6], 99.5 µM (inactive). In addition, the GI50 was 55.2 µM (inactive) in [8]; > 100 µM (inactive) in [9]; > 100 µM (inactive) in [10]; 40.6 µM (inactive) in assay [11]; 82.6 µM (inactive) in assay [18]; 41.3 µM (inactive) in assay [12]. Moreover, the GI50 in assay [13] was > 100 µM (inactive); in assay [14], > 100 µM (inactive); in assay [15], 44.6 µM (inactive); in [16] it was 69.3 µM (inactive); in assay [17] it was > 100 µM (inactive).

Consider `COC(=O)C(=O)C(C(=O)C(=O)Nc1ccc(C)cc1C)c1nc2ccccc2nc1O` (centres undefined), for which the GI50 in assay [1] is 35 µM (inactive); in [2], > 100 µM (inactive); in assay [3], 32.7 µM (inactive); in assay [4], 41.8 µM (inactive); in assay [5], 58.7 µM (inactive); in [6] it was 25 µM (inactive). The GI50 in assay [7] was 99.1 µM (inactive); in [9] it was 47 µM (inactive); in assay [10], 39.4 µM (inactive); in assay [11], 32.4 µM (inactive); in assay [18] it was 64.3 µM (inactive); in [12] it was 63 µM (inactive). The GI50 in assay [13] was 37.7 µM (inactive); in assay [14], 50 µM (inactive); in assay [15], 42.5 µM (inactive); in [19] it was 21.3 µM (inactive); in assay [16], 37.1 µM (inactive); in assay [17] it was 57.4 µM (inactive).

As for `Cc1ccccc1NC(=O)/C(=N\NC(N)=S)C(C#N)c1ccccc1` (centres undefined), the GI50 in [1], in assay [2], in [3], in [4], in assay [5] and in assay [6] was > 100 µM (inactive) in each case. Further, the GI50 in [7], in assay [8], in assay [9], in assay [10], in [11] and in assay [18] was > 100 µM (inactive) in each case. For the same compound, the GI50 in assay [12], in [13], in assay [14], in [15], in [16] and in assay [17] was > 100 µM (inactive) in each case.
